In ChEMBL document CHEMBL1201862, “PubChem BioAssay data set” (2004):
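Results reflect a 48-hour exposure of cells in 96-well plates to compound at five concentrations. Abbreviation: GI50, concentration required for 50% inhibition of growth.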 Activity calls are given as the source filed them. No stated cut-off is given here; in the data, active = GI50 up to about 1.1 µM and inactive = higher.

Assays:
Experiment in all cases: inhibition of tumour cell growth, NCI panel, 48 h
ACHN = test system: ACHN
HCC 2998 = test system: HCC 2998
HOP-62 = test system: HOP-62
HT-29 = test system: HT-29
MDA-MB-435 = test system: MDA-MB-435
MDA-N = test system: MDA-N
NCI-H226 = test system: NCI-H226
NCI-H23 = test system: NCI-H23
NCI-H522 = test system: NCI-H522
RXF 393 = test system: RXF 393
SF-295 = test system: SF-295
SF-539 = test system: SF-539
SK-MEL-28 = test system: SK-MEL-28
SK-MEL-2 = test system: SK-MEL-2
SN12C = test system: SN12C
SNB-19 = test system: SNB-19
TK-10 = test system: TK-10
U-251 = test system: U-251
UACC-62 = test system: UACC-62
UO-31 = test system: UO-31

Measured: GI50

COC(=O)c1c(C)nc(C)c(NO)c1-c1ccccc1C(F)(F)F
inactive: ACHN 30.8 µM | HCC 2998 > 100 µM | HOP-62 > 100 µM | HT-29 18.4 µM | MDA-MB-435 19.6 µM | MDA-N 16.8 µM | NCI-H226 20.2 µM | NCI-H23 35.6 µM | NCI-H522 17.2 µM | RXF 393 16.7 µM | SF-295 > 100 µM | SF-539 16 µM | SK-MEL-28 20.4 µM | SK-MEL-2 53.8 µM | SN12C 27 µM | SNB-19 > 100 µM | TK-10 17.1 µM | U-251 > 100 µM | UACC-62 64.9 µM | UO-31 29.5 µM

O=C1Nc2ccccc2/C1=N/Nc1ccc([N+](=O)[O-])cc1
inactive: ACHN 13.5 µM | HCC 2998 70.5 µM | HOP-62 14.6 µM | HT-29 61.8 µM | MDA-MB-435 40.3 µM | MDA-N 68.5 µM | NCI-H226 19.1 µM | NCI-H23 21.5 µM | NCI-H522 11.1 µM | RXF 393 15 µM | SF-295 16.9 µM | SF-539 3.83 µM | SK-MEL-28 41.3 µM | SK-MEL-2 58.2 µM | SN12C 22.6 µM | SNB-19 32.8 µM | TK-10 24 µM | U-251 30.3 µM | UACC-62 28.8 µM | UO-31 13.3 µM

CCOC(=O)/C=C/C1OC(C)(C)OC1/C=C/C(=O)OCC (stereo unspecified)
inactive: ACHN 38.4 µM | HCC 2998 23.2 µM | HOP-62 23.7 µM | HT-29 18.2 µM | MDA-MB-435 29 µM | MDA-N 35.1 µM | NCI-H226 > 100 µM | NCI-H23 40.6 µM | NCI-H522 22.5 µM | RXF 393 9.91 µM | SF-295 48.6 µM | SF-539 40.2 µM | SK-MEL-28 28.4 µM | SK-MEL-2 81.5 µM | SN12C 22.6 µM | SNB-19 33.9 µM | TK-10 39.3 µM | U-251 41.3 µM | UACC-62 39.9 µM | UO-31 > 100 µM

CCCCOC(=O)C(=O)C(CC(C(=O)Cc1ccccc1)c1ccccc1)C(=O)C=C(C)C (stereo unspecified)
inactive: ACHN > 100 µM | HCC 2998 > 100 µM | HOP-62 > 100 µM | HT-29 > 100 µM | MDA-MB-435 > 100 µM | MDA-N > 100 µM | NCI-H226 > 100 µM | NCI-H23 > 100 µM | NCI-H522 > 100 µM | RXF 393 > 100 µM | SF-295 > 100 µM | SF-539 > 100 µM | SK-MEL-28 > 100 µM | SK-MEL-2 > 100 µM | SN12C > 100 µM | SNB-19 > 100 µM | TK-10 > 100 µM | U-251 > 100 µM | UACC-62 > 100 µM | UO-31 > 100 µM

CC(C)(C)OC(=O)N1C(C2=COc3ccccc3O2)=COc2cccnc21
inactive: ACHN 1.65 µM | HCC 2998 1.69 µM | HOP-62 1.85 µM | HT-29 1.91 µM | MDA-MB-435 1.74 µM | MDA-N 1.99 µM | NCI-H226 1.71 µM | NCI-H23 1.61 µM | NCI-H522 1.61 µM | RXF 393 1.62 µM | SF-295 1.95 µM | SF-539 2 µM | SK-MEL-28 1.74 µM | SK-MEL-2 1.94 µM | SN12C 1.71 µM | SNB-19 2.04 µM | TK-10 2.75 µM | U-251 1.73 µM | UACC-62 1.58 µM | UO-31 1.64 µM

C1COC(NC(C2CC2)C2CC2)=N1 [RILMENIDINE]
inactive: ACHN > 100 µM | HCC 2998 > 100 µM | HT-29 > 100 µM | MDA-MB-435 > 100 µM | MDA-N > 100 µM | NCI-H226 > 100 µM | NCI-H23 > 100 µM | NCI-H522 > 100 µM | RXF 393 > 100 µM | SF-295 > 100 µM | SF-539 > 100 µM | SK-MEL-28 > 100 µM | SK-MEL-2 > 100 µM | SNB-19 > 100 µM | TK-10 > 100 µM | U-251 > 100 µM | UACC-62 > 100 µM | UO-31 > 100 µM

C/C(=N/NC(=S)N(C)C)c1ccccc1O
inactive: ACHN 6.31 µM | HCC 2998 18.7 µM | HOP-62 5.81 µM | HT-29 3.26 µM | MDA-MB-435 21.6 µM | MDA-N 11.9 µM | NCI-H226 > 23.7 µM | NCI-H23 20.7 µM | NCI-H522 9.86 µM | RXF 393 23 µM | SF-295 11.8 µM | SF-539 8.91 µM | SK-MEL-28 26.4 µM | SK-MEL-2 11.9 µM | SN12C 14.4 µM | SNB-19 > 59.8 µM | TK-10 13.3 µM | U-251 6.35 µM | UACC-62 6.46 µM | UO-31 8.67 µM

Cc1ccc(/N=N/N(C)C(=O)C(C)N)cc1 (stereo unspecified)
inactive: ACHN > 100 µM | HCC 2998 > 100 µM | HOP-62 > 100 µM | HT-29 > 100 µM | MDA-MB-435 > 100 µM | MDA-N > 100 µM | NCI-H226 > 100 µM | NCI-H23 > 100 µM | NCI-H522 60.1 µM | RXF 393 > 100 µM | SF-295 > 100 µM | SF-539 > 100 µM | SK-MEL-28 > 100 µM | SK-MEL-2 > 100 µM | SN12C > 100 µM | SNB-19 > 100 µM | TK-10 > 100 µM | U-251 > 100 µM | UACC-62 > 100 µM | UO-31 34.4 µM

N#CSC#Cc1ccc(C#CSC#N)cc1
inactive: ACHN 16.5 µM | HCC 2998 17.6 µM | HOP-62 23 µM | HT-29 20.1 µM | MDA-MB-435 20.9 µM | MDA-N 17.8 µM | NCI-H226 21.6 µM | NCI-H23 18.7 µM | NCI-H522 11.1 µM | RXF 393 18.7 µM | SF-295 20.9 µM | SF-539 20.9 µM | SK-MEL-28 26.2 µM | SK-MEL-2 20.2 µM | SN12C 18 µM | SNB-19 21.3 µM | TK-10 16.6 µM | U-251 21.5 µM | UACC-62 18.1 µM | UO-31 17.2 µM

CCOC(=O)Cn1c(=O)c2nc(SC)sc2n(CC)c1=S
inactive: ACHN > 100 µM | HCC 2998 > 100 µM | HOP-62 > 100 µM | HT-29 > 100 µM | MDA-MB-435 1.71 µM | MDA-N > 100 µM | NCI-H226 > 100 µM | NCI-H23 > 100 µM | NCI-H522 > 100 µM | RXF 393 36.8 µM | SF-295 > 100 µM | SF-539 > 100 µM | SK-MEL-28 > 100 µM | SK-MEL-2 > 100 µM | SN12C > 100 µM | SNB-19 > 100 µM | TK-10 > 100 µM | U-251 > 100 µM | UO-31 14.2 µM

C/C=C(\C)C(=O)O[C@@H]1CC(C)(C)CC2C3=CCC4[C@]56CC[C@](O)(OC5)C(C)(C)C6CC[C@@]4(C)C3(C)CC[C@]21C(=O)O (stereo partly specified)
inactive: ACHN 59.4 µM | HCC 2998 > 100 µM | HOP-62 > 100 µM | HT-29 97.1 µM | MDA-MB-435 > 100 µM | MDA-N > 100 µM | NCI-H226 > 100 µM | NCI-H23 > 100 µM | NCI-H522 > 100 µM | RXF 393 > 100 µM | SF-295 > 100 µM | SF-539 > 100 µM | SK-MEL-28 > 100 µM | SK-MEL-2 > 100 µM | SN12C > 100 µM | SNB-19 > 100 µM | TK-10 > 100 µM | U-251 70.5 µM | UACC-62 > 100 µM

O=C(NCCCCCCNC(=O)c1cccc2ccccc12)Nc1cccc2ccccc12
inactive: ACHN > 100 µM | HCC 2998 > 100 µM | HOP-62 > 100 µM | HT-29 > 100 µM | MDA-MB-435 > 100 µM | MDA-N > 100 µM | NCI-H23 > 100 µM | NCI-H522 > 100 µM | RXF 393 > 100 µM | SF-295 > 100 µM | SF-539 > 100 µM | SK-MEL-28 > 100 µM | SK-MEL-2 > 100 µM | SN12C > 100 µM | SNB-19 > 100 µM | TK-10 > 100 µM | U-251 > 100 µM | UACC-62 > 100 µM | UO-31 45.7 µM

NC(=O)C(Nc1c(Cl)cccc1Cl)c1cc2cc(Br)ccc2nc1Cl (stereo unspecified)
inactive: ACHN 80.9 µM | HCC 2998 44.8 µM | HOP-62 65.8 µM | HT-29 52.8 µM | MDA-MB-435 19.5 µM | MDA-N 27.6 µM | NCI-H226 45.5 µM | NCI-H23 44.6 µM | NCI-H522 25.9 µM | RXF 393 41.7 µM | SF-295 58.9 µM | SF-539 41.7 µM | SK-MEL-28 > 100 µM | SK-MEL-2 29.6 µM | SN12C 63.1 µM | SNB-19 74.3 µM | TK-10 34.6 µM | UACC-62 44.1 µM | UO-31 55 µM

C/C=C/OC1C(C2COC(C)(C)O2)OC2OC(C)(C)OC21 (stereo unspecified)
inactive: ACHN > 100 µM | HCC 2998 > 100 µM | HOP-62 > 100 µM | HT-29 > 100 µM | MDA-MB-435 > 100 µM | MDA-N > 100 µM | NCI-H23 > 100 µM | NCI-H522 > 100 µM | RXF 393 > 100 µM | SF-295 > 100 µM | SF-539 > 100 µM | SK-MEL-28 > 100 µM | SK-MEL-2 > 100 µM | SNB-19 > 100 µM | TK-10 > 100 µM | U-251 > 100 µM | UO-31 > 100 µM
